Assay results: PMC7465109, “Discovery of Sulfated Small Molecule Inhibitors of Matrix Metalloproteinase-8” (Biomolecules, 2020)

Legend:
MMP-8 = biological target: T1, MMP-8 (Homo sapiens, UniProt P22894); test: Direct inhibition of MMP-8, fluorogenic substrate hydrolysis assay; type: biochemical; details: for IC50 / ΔY (efficacy of MMP-8 inhibition): Tris-buffered saline, 10 mM CaCl2, 1 µM ZnCl2, pH 7.5, 37 °C; for IC50: error ± 1 SD, read-out: IC50 (potency of MMP-8 inhibition); for ΔY (efficacy of MMP-8 inhibition): from dose-response regression
T1 construct: purchased R&D Systems (Minneapolis, MN, USA)
Experimental: NSGMs were screened for the inhibition of MMP-8 using a fluorogenic substrate assay, as described earlier. Briefly, 100 µg/mL pro-MMP-8 was activated by incubating with 1mM p-aminomercuric acetate at 37 °C for 1 hr. Activated MMP-8 (10 nM, final) was then incubated with NSGMs (100 µM, final) in Tris-buffered saline containing 10 mM CaCl2,1 µM ZnCl2, pH 7.5 for 10 min at 37 °C. Residual MMP-8 activity was measured by adding the fluorogenic substrate (DNP-Pro-Leu-Ala- Tyr-Trp-Ala-Arg, 20 µM, final) and monitoring initial linear rate of increase in fluorescence. IC50s were calculated using the following equation, Y=Y0+YM−Y0/1+10^(log[I]0−logIC50)×HS . Y is the ratio of residual enzyme activity in the presence of NSGM to that in its absence, Y0 and YM are the minimal and maximal values of Y, respectively, obtained following regression, and HS is the Hill slope of inhibition.

MMP-9 = biological target: T2, MMP-9 (Homo sapiens, UniProt P14780); test: MMP-9 inhibitor screening assay kit (Abcam #ab139448); type: biochemical; details: NSGM 100 µM; read-out: MMP-9 inhibition in screen
T2 construct: purchased Abcam (Cambridge, UK) ab139448
Experimental: Screening of sulfated benzofurans and quinazolinones (100 µM, final) against MMP-9 was performed using a commercially available assay kit (Abcam catalog #ab139448) following manufacturer’s protocol. All experiments were performed at least twice in duplicates.

[1] = NSGM 100 µM, MMP-8 10 nM, pH 7.5, 37 °C

T1 sequence (P22894 101-467): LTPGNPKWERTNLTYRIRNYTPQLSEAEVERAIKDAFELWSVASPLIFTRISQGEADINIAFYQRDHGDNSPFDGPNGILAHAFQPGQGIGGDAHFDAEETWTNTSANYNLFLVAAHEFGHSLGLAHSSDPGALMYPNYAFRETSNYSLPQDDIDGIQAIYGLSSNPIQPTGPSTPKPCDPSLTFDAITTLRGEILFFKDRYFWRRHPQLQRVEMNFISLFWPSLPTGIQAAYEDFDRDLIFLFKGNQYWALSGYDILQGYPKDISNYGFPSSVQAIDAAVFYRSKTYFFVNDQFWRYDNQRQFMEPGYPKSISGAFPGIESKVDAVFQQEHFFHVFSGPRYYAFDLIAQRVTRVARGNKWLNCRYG
T2 sequence (P14780 107-444 limits assumed): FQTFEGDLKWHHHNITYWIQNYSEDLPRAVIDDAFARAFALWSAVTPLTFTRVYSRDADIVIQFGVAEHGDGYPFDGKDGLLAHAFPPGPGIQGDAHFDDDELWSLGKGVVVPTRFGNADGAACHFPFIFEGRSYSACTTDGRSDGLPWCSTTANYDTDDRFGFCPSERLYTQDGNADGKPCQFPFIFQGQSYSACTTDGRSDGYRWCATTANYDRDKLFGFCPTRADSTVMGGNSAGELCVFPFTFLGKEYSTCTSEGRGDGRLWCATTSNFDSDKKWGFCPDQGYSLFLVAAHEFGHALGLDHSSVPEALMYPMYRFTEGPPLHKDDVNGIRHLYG

Structure (SMILES): O=c1c2ccccc2nc(-c2ccc(OS(=O)(=O)O)cc2)n1CCCCCCCCCCCCn1cc(Cn2c(-c3ccc(OS(=O)(=O)O)cc3)nc3ccccc3c2=O)nn1 [NSGM 42]
- MMP-8 inhibition in library screen (MMP-8; [1]): > 80%
- IC50 (MMP-8): 34 ± 4 µM
- ΔY (efficacy of MMP-8 inhibition) (MMP-8): 98 ± 8%

Structure (SMILES): CCOC(=O)c1c(C)oc2cc(OCC3CCCCC3)c(OCc3oc4cc(OCC5CCCCC5)c(OS(=O)(=O)O)cc4c3C(=O)OCC)cc12 [NSGM 29]
- MMP-8 inhibition in library screen (result in words) (MMP-8; [1]): did not inhibit MMP-8
- inhibition at 100 µM (MMP-9): > 80%

Structure (SMILES): O=c1c2ccccc2nc(-c2ccc(OS(=O)(=O)O)cc2)n1CCCCCCCCCn1cc(Cn2c(-c3ccc(OS(=O)(=O)O)cc3)nc3ccccc3c2=O)nn1 [NSGM 40]
- MMP-8 inhibition in library screen (MMP-8; [1]): > 80%
- IC50 (MMP-8): 25 ± 1 µM
- ΔY (efficacy of MMP-8 inhibition) (MMP-8): 100 ± 2%

Structure (SMILES): O=c1c2ccccc2nc(-c2ccc(OS(=O)(=O)O)cc2)n1CCCCCCCCCCn1cc(Cn2c(-c3ccc(OS(=O)(=O)O)cc3)nc3ccccc3c2=O)nn1 [NSGM 41]
- MMP-8 inhibition in library screen (MMP-8; [1]): > 80%
- IC50 (MMP-8): 15 ± 1 µM
- ΔY (efficacy of MMP-8 inhibition) (MMP-8): 97 ± 2%
